Reference: patent US12371454B2, “Cyclic peptide compound having Kras inhibitory action” (priority 2019, dated 2025)
pIC50: −log10 of the molar value. Starred links: 1 amine or outer side, 2 acyl side, 3 side chain; linkers in the order of their positions; H or OH if unused. Positions of bridges follow the written chain, without caps; N, C: chain ends. Non-standard residues stand in square brackets, D forms with d. Residues, ends and D or L forms follow the SMILES beside them. *: point of attachment. hPhe(3-Cl-4-CF3) = N[C@@H](CCc1ccc(C(F)(F)F)c(Cl)c1)C(=O)O; hPhe(3-F,4-CF3) = N[C@@H](CCc1ccc(C(F)(F)F)c(F)c1)C(=O)O; NMePhe(4-CF3) = CN[C@@H](Cc1ccc(C(F)(F)F)cc1)C(=O)O; hPhe(4-CF3) = N[C@@H](CCc1ccc(C(F)(F)F)cc1)C(=O)O; NMePhe(4-Cl) = CN[C@@H](Cc1ccc(Cl)cc1)C(=O)O; NMedβ3hAla = C[C@H](CC(=O)[*:2])N(C)[*:1]; NMeGly(cPent) = CN[C@H](C(=O)O)C1CCCC1; Phe(3-I) = N[C@@H](Cc1cccc(I)c1)C(=O)O; Pro(4,4-F2) = O=C(O)[C@@H]1CC(F)(F)CN1; NMeCha = CN[C@@H](CC1CCCCC1)C(=O)O; NMeChg = CN[C@H](C(=O)O)C1CCCCC1; NMeD = CN[C@@H](CC(=O)O)C(=O)O; CH2CONHtBu = CC(C)(C)NC(=O)C*; NMeL = CN[C@@H](CC(C)C)C(=O)O; NMehSer = CN[C@@H](CCO)C(=O)O; hLeu = CC(C)CC[C@H](N)C(=O)O; NMeV = CN[C@H](C(=O)O)C(C)C; d(β3hA) = C[C@@H](N)CC(=O)O; NMeS = CN[C@@H](CO)C(=O)O; NMeA = CN[C@@H](C)C(=O)O; NMeAib = CNC(C)(C)C(=O)O; Nle = CCCC[C@H](N)C(=O)O; Piperidide = C1CCN(*)CC1; dNMeA = CN[C@H](C)C(=O)O; Ac5c = NC1(C(=O)O)CCCC1; Aze = O=C(O)[C@@H]1CCN1; CH2CMe2OH = CC(C)(O)C*; Cyclobutyl = C1CC(*)C1; Ac3c = NC1(C(=O)O)CC1; Aib = CC(C)(N)C(=O)O; Isopentyl = CC(C)CC*; NEtG = CCNCC(=O)O; Sar = CNCC(=O)O

Molecular target: T1, Kras and SOS1 (biotin-tagged human Kras loaded with GDP, His-tagged human SOS1) (Homo sapiens, UniProt P01116, G12D)
T1 construct: made in house; host or cells: E. coli (stated for Kras only)
T1 sequence (P01116 1-188 isoform P01116-2 G12D): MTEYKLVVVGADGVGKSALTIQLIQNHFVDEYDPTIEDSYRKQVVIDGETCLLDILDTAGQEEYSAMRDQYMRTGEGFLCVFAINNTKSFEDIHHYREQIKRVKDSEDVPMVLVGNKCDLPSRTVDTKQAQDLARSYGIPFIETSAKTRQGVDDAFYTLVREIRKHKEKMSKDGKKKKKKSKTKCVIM
Assay: Protein-protein interaction inhibition between Kras and SOS1 (KrasGl2D-SOS PPI) using AlphaScreen
Type: binding
Settings: AlphaScreen; biotin-tagged human Kras loaded with GDP, His-tagged human SOS1; read-out: KRAS G12D-SOS PPI IC50
Method in brief: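 Energy transfer from nickel-chelate donor beads bound to His-SOS1 to streptavidin acceptor beads bound to biotin-Kras, expressed in E. coli and loaded with GDP after purification, was monitored. Donors were excited at 680 nm; singlet oxygen reaching acceptors gave emission read at 520-620 nm.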

**Q.** How did the pIC50 turn out when CCCC[C@@H]1NC(=O)[C@H](Cc2ccccc2)NC(=O)CN(C)C(=O)[C@H](Cc2ccc(Cl)cc2)N(C)C(=O)CN(C)C(=O)CN(C)C(=O)[C@H]([C@@H](C)CC)NC(=O)[C@H](CC(C)C)N(C)C(=O)C[C@@H](C(=O)N2CCCCC2)N(C)C(=O)[C@H](CC(C)C)NC(=O)C(C)(C)N(C)C1=O [Compound 1043] ([NMeL]I[Sar][Sar][NMePhe(4-Cl)][Sar]F[Nle][NMeAib]L[NMeD]-Piperidide; lactam N-11) was run?
**A.** 7.22

**Q.** CC[C@H](C)[C@@H]1NC(=O)[C@H](CC(C)C)N(C)C(=O)C[C@@H](C(=O)N2CCCCC2)N(C)C(=O)[C@H](C2CCCCC2)N(C)C(=O)C2(CCCC2)NC(=O)[C@@H]2CCCN2C(=O)[C@H](CCc2ccc(C(F)(F)F)c(Cl)c2)NC(=O)CN(C)C(=O)[C@H](CCOC)N(C)C(=O)CN(C)C(=O)CN(C)C1=O [Compound 159] ([NMeL]I[Sar][Sar][NMehSer](Me)[Sar][hPhe(3-Cl-4-CF3)]P[Ac5c][NMeChg][NMeD]-Piperidide; lactam N-11) was tested. Which pIC50 did it give?
**A.** 8.62

**Q.** With CC[C@H](C)[C@@H]1NC(=O)[C@H](CC(C)C)N(C)C(=O)C[C@@H](C)NC(=O)[C@H](CC(C)C)N(C)C(=O)C2(CCCC2)NC(=O)[C@@H]2CC(F)(F)CN2C(=O)[C@H](CCc2ccc(C(F)(F)F)c(F)c2)NC(=O)CN(C)C(=O)[C@H](CC2CCCCC2)N(C)C(=O)CN(C)C(=O)CN(C)C1=O [Compound 1509] (cyclo([Ac5c][NMeL][d(β3hA)][NMeL]I[Sar][Sar][NMeCha][Sar][hPhe(3-F,4-CF3)][Pro(4,4-F2)])) as the compound, how does the pIC50 read?
**A.** 7.64

**Q.** With CC(C)C[C@H]1C(=O)N[C@@H](COC2CCC2)C(=O)N(C)CC(=O)N(C)CC(=O)N(C)[C@@H](CC2CCCCC2)C(=O)N(C)CC(=O)N[C@@H](CCc2ccc(C(F)(F)F)c(Cl)c2)C(=O)N2CCC[C@H]2C(=O)NC2(CCCC2)C(=O)N(C)[C@@H](C2CCCCC2)C(=O)N(C)[C@H](C(=O)N2CCCCC2)CC(=O)N1C [Compound 226] ([NMeL]S(Cyclobutyl)[Sar][Sar][NMeCha][Sar][hPhe(3-Cl-4-CF3)]P[Ac5c][NMeChg][NMeD]-Piperidide; lactam N-11) as the compound, how does the pIC50 read?
**A.** 8.46

**Q.** CC[C@H](C)[C@@H]1NC(=O)[C@H](CC(C)C)N(C)C(=O)C[C@@H](C)N(C)C(=O)[C@H](C(C)C)N(C)C(=O)C2(CC2)NC(=O)[C@@H]2CCCN2C(=O)[C@H](CCc2ccc(C(F)(F)F)c(Cl)c2)NC(=O)CN(C)C(=O)[C@H](CC2CCCCC2)N(C)C(=O)CN(C)C(=O)CN(C)C1=O [Compound 268] (cyclo([Ac3c][NMeV][NMedβ3hAla][NMeL]I[Sar][Sar][NMeCha][Sar][hPhe(3-Cl-4-CF3)]P)) was tested. Which pIC50 did it give?
**A.** 7.74

**Q.** With CC[C@H](C)[C@@H]1NC(=O)[C@H](CC(C)C)N(C)C(=O)C[C@@H](C(=O)N2CCCCC2)N(C)C(=O)[C@H](CC(C)C)N(C)C(=O)C(C)(C)NC(=O)[C@H](COCC(C)(C)O)N(C)C(=O)[C@H](CCc2ccc(C(F)(F)F)cc2)NC(=O)CN(C)C(=O)[C@H](COCCC(C)C)N(C)C(=O)CN(C)C(=O)CN(CC)C1=O [Compound 1528] ([NMeL]I[NEtG][Sar][NMeS](Isopentyl)[Sar][hPhe(4-CF3)][NMeS](CH2CMe2OH)[Aib][NMeL][NMeD]-Piperidide; lactam N-11) as the compound, how does the pIC50 read?
**A.** 7.39

**Q.** With CC[C@H](C)[C@@H]1NC(=O)[C@H](CC(C)C)N(C)C(=O)C[C@@H](C(=O)N2CCCCC2)N(C)C(=O)[C@H](C(C)C)N(C)C(=O)C2(CCCC2)NC(=O)[C@@H]2CCCN2C(=O)[C@H](CCc2ccc(C(F)(F)F)c(Cl)c2)NC(=O)CN(C)C(=O)[C@H](CC2CCCCC2)N(C)C(=O)[C@@H]2CCN2C(=O)[C@H](COCC(=O)NC(C)(C)C)N(C)C1=O [Compound 998] ([NMeL]I[NMeS](CH2CONHtBu)[Aze][NMeCha][Sar][hPhe(3-Cl-4-CF3)]P[Ac5c][NMeV][NMeD]-Piperidide; lactam N-11) as the compound, how does the pIC50 read?
**A.** 7.77

**Q.** CC[C@H](C)[C@@H]1NC(=O)[C@H](C)N(C)C(=O)C[C@@H](C)NC(=O)[C@H](C2CCCC2)N(C)C(=O)C2(CCCC2)NC(=O)[C@@H]2CCCN2C(=O)[C@H](CCc2ccc(C(F)(F)F)c(Cl)c2)NC(=O)[C@@H](C)N(C)C(=O)[C@H](C(C)C)N(C)C(=O)CN(C)C(=O)CN(C)C1=O [Compound 109] (cyclo([Ac5c][NMeGly(cPent)][d(β3hA)][NMeA]I[Sar][Sar][NMeV][dNMeA][hPhe(3-Cl-4-CF3)]P)) was tested. Which pIC50 did it give?
**A.** 7.40

**Q.** CCCC[C@@H]1NC(=O)[C@H](Cc2cccc(I)c2)NC(=O)CN(C)C(=O)[C@H](Cc2ccc(C(F)(F)F)cc2)N(C)C(=O)CN(C)C(=O)CN(C)C(=O)[C@H]([C@@H](C)CC)NC(=O)[C@H](CC(C)C)N(C)C(=O)C[C@@H](C(=O)N2CCCCC2)N(C)C(=O)[C@H](CCC(C)C)NC(=O)C(C)(C)N(C)C1=O [Compound 1433] ([NMeL]I[Sar][Sar][NMePhe(4-CF3)][Sar][Phe(3-I)][Nle][NMeAib][hLeu][NMeD]-Piperidide; lactam N-11) was tested. Which pIC50 did it give?
**A.** 7.54
